Values joined by “and” are separate entries in the source; they are usually repeats but may differ in a detail not shown here. Identical values can stand only once. ± gives the expanded uncertainty stated by the source.
How the values were obtained:
[1] = for surface tension liquid-gas: Pendant drop shape; for mass density: 101 kPa, Liquid
[2] = xn = mol fraction of the nth substance listed; conditions: for surface tension liquid-gas: Pendant drop shape; for mass density: 101 kPa, Liquid

Cc1ccc(C)c(C)c1 [1,2,4-trimethylbenzene]
[1]
Conditions	mass density [kg/m3]	surface tension liquid-gas [mN/m]
298.15 K	871.65 ± 0.48	29.29 ± 0.33
313.15 K	859.54 ± 0.49	27.67 ± 0.31

Cc1ccc(C)c(C)c1 [1,2,4-trimethylbenzene] + COCCO
[2]
Conditions	mass density [kg/m3]	surface tension liquid-gas [mN/m]
298.15 K, x2 = 0	871.65 ± 0.48	29.29 ± 0.33
298.15 K, x2 = 0.0507	873.14 ± 0.47	–
298.15 K, x2 = 0.0976	875.08 ± 0.46	29.36 ± 0.32
298.15 K, x2 = 0.154	877.75 ± 0.45	–
298.15 K, x2 = 0.2031	880.31 ± 0.44	29.36 ± 0.32
298.15 K, x2 = 0.2556	883.31 ± 0.43	–
298.15 K, x2 = 0.3021	886.13 ± 0.42	29.35 ± 0.32
298.15 K, x2 = 0.3482	889.1 ± 0.41	–
298.15 K, x2 = 0.3999	892.67 ± 0.4	29.44 ± 0.32
298.15 K, x2 = 0.453	896.6 ± 0.39	–
298.15 K, x2 = 0.5015	900.39 ± 0.38	29.57 ± 0.32
298.15 K, x2 = 0.5513	904.61 ± 0.37	–
298.15 K, x2 = 0.6035	909.35 ± 0.35	29.78 ± 0.32
298.15 K, x2 = 0.6526	914.1 ± 0.34	–
298.15 K, x2 = 0.7033	919.38 ± 0.33	30.03 ± 0.32
298.15 K, x2 = 0.7534	924.98 ± 0.32	–
298.15 K, x2 = 0.7974	930.26 ± 0.31	30.34 ± 0.32
298.15 K, x2 = 0.8455	936.54 ± 0.29	–
298.15 K, x2 = 0.9014	944.31 ± 0.28	30.61 ± 0.32
298.15 K, x2 = 0.9507	951.9 ± 0.27	–
313.15 K, x2 = 0	859.54 ± 0.49	27.67 ± 0.31
313.15 K, x2 = 0.0494	860.68 ± 0.48	–
313.15 K, x2 = 0.1019	862.75 ± 0.47	27.78 ± 0.31
313.15 K, x2 = 0.15	864.92 ± 0.46	–
313.15 K, x2 = 0.2002	867.4 ± 0.45	27.72 ± 0.31
313.15 K, x2 = 0.2486	869.95 ± 0.44	–
313.15 K, x2 = 0.3004	873 ± 0.43	27.72 ± 0.31
313.15 K, x2 = 0.3507	876.1 ± 0.42	–
313.15 K, x2 = 0.4007	879.45 ± 0.41	27.79 ± 0.3
313.15 K, x2 = 0.4502	883.02 ± 0.4	–
313.15 K, x2 = 0.4991	886.8 ± 0.39	27.84 ± 0.3
313.15 K, x2 = 0.5513	891.2 ± 0.38	–
313.15 K, x2 = 0.6006	895.56 ± 0.37	28.03 ± 0.3
313.15 K, x2 = 0.653	900.55 ± 0.36	–
313.15 K, x2 = 0.7002	905.44 ± 0.35	28.29 ± 0.3
313.15 K, x2 = 0.7504	910.91 ± 0.33	–
313.15 K, x2 = 0.7999	916.79 ± 0.32	28.59 ± 0.3
313.15 K, x2 = 0.8496	923.25 ± 0.31	–
313.15 K, x2 = 0.9007	930.3 ± 0.29	28.96 ± 0.31
313.15 K, x2 = 0.9504	937.74 ± 0.28	–

Cc1ccc(C)c(C)c1 [1,2,4-trimethylbenzene] + COCCOC
[2]
Conditions	mass density [kg/m3]	surface tension liquid-gas [mN/m]
298.15 K, x2 = 0	871.65 ± 0.48	29.29 ± 0.33
298.15 K, x2 = 0.0488	871.13 ± 0.47	–
298.15 K, x2 = 0.103	870.57 ± 0.46	28.71 ± 0.32
298.15 K, x2 = 0.1497	870.09 ± 0.45	–
298.15 K, x2 = 0.205	869.53 ± 0.44	28.11 ± 0.31
298.15 K, x2 = 0.2496	869.07 ± 0.44	–
298.15 K, x2 = 0.3006	868.54 ± 0.43	27.54 ± 0.3
298.15 K, x2 = 0.3515	868.02 ± 0.42	–
298.15 K, x2 = 0.398	867.54 ± 0.41	26.97 ± 0.3
298.15 K, x2 = 0.4492	867.02 ± 0.41	–
298.15 K, x2 = 0.5005	866.49 ± 0.4	26.43 ± 0.29
298.15 K, x2 = 0.5491	865.99 ± 0.39	–
298.15 K, x2 = 0.601	865.46 ± 0.39	25.9 ± 0.28
298.15 K, x2 = 0.649	864.97 ± 0.38	–
298.15 K, x2 = 0.6979	864.48 ± 0.38	25.42 ± 0.28
298.15 K, x2 = 0.7506	863.94 ± 0.37	–
298.15 K, x2 = 0.7977	863.46 ± 0.37	24.92 ± 0.27
298.15 K, x2 = 0.8501	862.93 ± 0.36	–
298.15 K, x2 = 0.9018	862.41 ± 0.36	24.41 ± 0.27
298.15 K, x2 = 0.9463	861.95 ± 0.36	–
313.15 K, x2 = 0	859.54 ± 0.49	27.67 ± 0.31
313.15 K, x2 = 0.0482	858.88 ± 0.48	–
313.15 K, x2 = 0.1004	858.17 ± 0.47	–
313.15 K, x2 = 0.1019	–	27.02 ± 0.3
313.15 K, x2 = 0.1494	857.51 ± 0.46	–
313.15 K, x2 = 0.1999	856.82 ± 0.46	–
313.15 K, x2 = 0.2002	–	26.43 ± 0.3
313.15 K, x2 = 0.2495	856.16 ± 0.45	–
313.15 K, x2 = 0.2999	855.48 ± 0.44	–
313.15 K, x2 = 0.3004	–	25.85 ± 0.29
313.15 K, x2 = 0.353	854.74 ± 0.43	–
313.15 K, x2 = 0.4007	–	25.26 ± 0.28
313.15 K, x2 = 0.4015	854.06 ± 0.43	–
313.15 K, x2 = 0.4557	853.31 ± 0.42	–
313.15 K, x2 = 0.4991	–	24.73 ± 0.28
313.15 K, x2 = 0.4996	852.68 ± 0.42	–
313.15 K, x2 = 0.5499	851.99 ± 0.41	–
313.15 K, x2 = 0.5989	851.29 ± 0.41	–
313.15 K, x2 = 0.6006	–	24.23 ± 0.27
313.15 K, x2 = 0.6513	850.53 ± 0.4	–
313.15 K, x2 = 0.7002	–	23.77 ± 0.27
313.15 K, x2 = 0.7005	849.81 ± 0.4	–
313.15 K, x2 = 0.7508	849.12 ± 0.39	–
313.15 K, x2 = 0.7999	–	23.32 ± 0.26
313.15 K, x2 = 0.8	848.38 ± 0.39	–
313.15 K, x2 = 0.8503	847.65 ± 0.38	–
313.15 K, x2 = 0.9007	–	22.94 ± 0.26
313.15 K, x2 = 0.9008	846.87 ± 0.38	–
313.15 K, x2 = 0.9493	846.16 ± 0.38	–

COCCOC [1,2-dimethoxyethane]
[1]
Conditions	mass density	surface tension liquid-gas [mN/m]
298.15 K	861.38 ± 0.35 kg/m3	23.93 ± 0.26
313.15 K	845.31 ± 0.38 kg/m3 and 845.28 ± 0.38 kg/m3	22.51 ± 0.25

From the NIST ThermoML archive (doi:10.1021/je050484k)
